Type in all cases: cell-based
Experiment [1] concerns A431 cells. The experiment is described as follows: Cellular proliferation (Alamar Blue) assay, A431 cells. The conditions noted are these: Homo sapiens, A-431, 72 h, A431 cells; 72 hr; Alamar Blue; read-out: A431 IC50. The procedure:
(§1) • 1. Seed cells at 5000 for A431 and 15,000 cells for Ba/F3 in 100 μL/well in complete media (for A431: DMEM with 10% FBS and for Ba/F3 cells: RPMI with 10% FBS) in 96-well tissue culture plate. Leave outer wells without cells for background measurements. Incubate at 37 degree Celsius in 5% CO2 humidified incubator for 16-18 hours. • 2. Add 0.025 ml of 5X concentration compound dilution or DMSO control. Final compound concentration range is 10-0.0005 μM prepared in 3-fold serial dilutions. Incubate for 72 hr at 37 degree Celsius in 5% CO2 humidified incubator. • 3. Add 0.0125 ml Alamar Blue™ reagent to each well with multi-channel pipette and tap gently on each side of the plate to mix. Incubate for 3 hours at 37 degree Celsius in 5% CO2 humidified incubator. • 4. […] Data analysis was performed using XLfit 5.5.0.5.
In general terms: The colour change of resazurin is a common sign of viable cells or microbes.

Experiment [2] has as its target HER2 (A775_G776insYVMA) expressing Ba/F3 stable cell line (Homo sapiens, UniProt P04626, DUP772-775, cells depend on it). In words: Cellular proliferation (Alamar Blue) assay, HER2 (A775_G776insYVMA) Ba/F3. Particulars: HER2 (A775_G776insYVMA) Ba/F3 cells; 72 hr; Alamar Blue; read-out: YVMA IC50. As for the experimental part: (§2) Cell line details: • 1. EGFR(D770_N771insSVD) expressing Ba/F3 stable cell line • 2. EGFR (A767_dupASV) expressing Ba/F3 stable cell line • 3. A431 cells • 4. EGFR (H773insNPH) expressing Ba/F3 stable cell line • 5. HER2 (A775_G776insYVMA) expressing Ba/F3 stable cell line
as §1

The target in experiment [3] is EGFR(D770_N771insSVD) expressing Ba/F3 stable cell line (Homo sapiens, UniProt P00533, DUP768-770, cells depend on it). In words: Cellular proliferation (Alamar Blue) assay, EGFR(D770_N771insSVD) Ba/F3. The conditions noted are these: 72 hr, read-out: D770 IC50. As for the experimental part:
as §2, §1

Experiment [4] has as its target EGFR (A767_dupASV) expressing Ba/F3 stable cell line (Homo sapiens, UniProt P00533, DUP767-769, cells depend on it). The experiment is described as follows: Cellular proliferation (Alamar Blue) assay, EGFR (A767_dupASV) Ba/F3. The conditions noted are these: 72 hr, read-out: A767 IC50. As for the experimental part: as §2, §1

Consider 22 compounds from US20230416232A1, “PYRIMIDINE COMPOUNDS, COMPOSITIONS, AND MEDICINAL APPLICATIONS THEREOF” (Blueprint Medicines Corporation, priority 2020, published 2023).

A word on the IC50: it is the midpoint of a concentration-inhibition curve.

The structures appear in SMILES notation. Counter-ions that a name gives are not always drawn.

Chain of HER2 (A775_G776insYVMA) expressing Ba/F3 stable cell line (P04626 with tags, fused parts or gaps DUP772-775): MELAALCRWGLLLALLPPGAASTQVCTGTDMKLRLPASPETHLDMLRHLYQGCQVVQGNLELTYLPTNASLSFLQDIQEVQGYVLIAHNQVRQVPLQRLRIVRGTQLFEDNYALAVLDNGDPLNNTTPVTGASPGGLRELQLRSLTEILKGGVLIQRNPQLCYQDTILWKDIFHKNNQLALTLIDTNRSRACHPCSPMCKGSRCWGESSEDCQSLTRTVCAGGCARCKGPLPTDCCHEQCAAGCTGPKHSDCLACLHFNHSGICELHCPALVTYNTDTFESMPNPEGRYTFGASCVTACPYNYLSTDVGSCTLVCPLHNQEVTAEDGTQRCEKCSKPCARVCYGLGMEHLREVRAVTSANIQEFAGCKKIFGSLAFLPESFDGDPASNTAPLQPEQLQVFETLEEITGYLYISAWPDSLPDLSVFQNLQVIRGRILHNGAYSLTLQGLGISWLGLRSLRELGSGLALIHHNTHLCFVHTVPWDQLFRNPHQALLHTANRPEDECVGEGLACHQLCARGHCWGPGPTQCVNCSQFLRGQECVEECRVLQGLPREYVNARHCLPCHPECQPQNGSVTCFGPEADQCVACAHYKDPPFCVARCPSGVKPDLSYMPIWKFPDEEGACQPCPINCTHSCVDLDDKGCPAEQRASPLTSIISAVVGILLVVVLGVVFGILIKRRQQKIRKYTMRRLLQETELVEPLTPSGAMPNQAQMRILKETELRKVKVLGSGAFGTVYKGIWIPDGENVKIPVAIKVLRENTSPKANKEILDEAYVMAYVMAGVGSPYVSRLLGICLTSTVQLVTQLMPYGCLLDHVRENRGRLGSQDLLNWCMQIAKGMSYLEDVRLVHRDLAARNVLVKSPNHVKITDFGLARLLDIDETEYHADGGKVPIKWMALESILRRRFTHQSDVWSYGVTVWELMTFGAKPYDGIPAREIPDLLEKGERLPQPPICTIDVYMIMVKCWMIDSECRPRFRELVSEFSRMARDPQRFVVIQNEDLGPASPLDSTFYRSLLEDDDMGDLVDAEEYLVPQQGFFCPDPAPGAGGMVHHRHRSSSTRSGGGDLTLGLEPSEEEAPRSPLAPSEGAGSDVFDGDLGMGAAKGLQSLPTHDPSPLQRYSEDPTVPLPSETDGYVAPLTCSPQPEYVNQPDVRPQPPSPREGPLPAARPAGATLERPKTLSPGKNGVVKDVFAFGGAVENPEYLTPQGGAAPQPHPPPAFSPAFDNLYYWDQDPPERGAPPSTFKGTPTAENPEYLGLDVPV
Chain of EGFR (A767_dupASV) expressing Ba/F3 stable cell line (P00533 with tags, fused parts or gaps DUP767-769): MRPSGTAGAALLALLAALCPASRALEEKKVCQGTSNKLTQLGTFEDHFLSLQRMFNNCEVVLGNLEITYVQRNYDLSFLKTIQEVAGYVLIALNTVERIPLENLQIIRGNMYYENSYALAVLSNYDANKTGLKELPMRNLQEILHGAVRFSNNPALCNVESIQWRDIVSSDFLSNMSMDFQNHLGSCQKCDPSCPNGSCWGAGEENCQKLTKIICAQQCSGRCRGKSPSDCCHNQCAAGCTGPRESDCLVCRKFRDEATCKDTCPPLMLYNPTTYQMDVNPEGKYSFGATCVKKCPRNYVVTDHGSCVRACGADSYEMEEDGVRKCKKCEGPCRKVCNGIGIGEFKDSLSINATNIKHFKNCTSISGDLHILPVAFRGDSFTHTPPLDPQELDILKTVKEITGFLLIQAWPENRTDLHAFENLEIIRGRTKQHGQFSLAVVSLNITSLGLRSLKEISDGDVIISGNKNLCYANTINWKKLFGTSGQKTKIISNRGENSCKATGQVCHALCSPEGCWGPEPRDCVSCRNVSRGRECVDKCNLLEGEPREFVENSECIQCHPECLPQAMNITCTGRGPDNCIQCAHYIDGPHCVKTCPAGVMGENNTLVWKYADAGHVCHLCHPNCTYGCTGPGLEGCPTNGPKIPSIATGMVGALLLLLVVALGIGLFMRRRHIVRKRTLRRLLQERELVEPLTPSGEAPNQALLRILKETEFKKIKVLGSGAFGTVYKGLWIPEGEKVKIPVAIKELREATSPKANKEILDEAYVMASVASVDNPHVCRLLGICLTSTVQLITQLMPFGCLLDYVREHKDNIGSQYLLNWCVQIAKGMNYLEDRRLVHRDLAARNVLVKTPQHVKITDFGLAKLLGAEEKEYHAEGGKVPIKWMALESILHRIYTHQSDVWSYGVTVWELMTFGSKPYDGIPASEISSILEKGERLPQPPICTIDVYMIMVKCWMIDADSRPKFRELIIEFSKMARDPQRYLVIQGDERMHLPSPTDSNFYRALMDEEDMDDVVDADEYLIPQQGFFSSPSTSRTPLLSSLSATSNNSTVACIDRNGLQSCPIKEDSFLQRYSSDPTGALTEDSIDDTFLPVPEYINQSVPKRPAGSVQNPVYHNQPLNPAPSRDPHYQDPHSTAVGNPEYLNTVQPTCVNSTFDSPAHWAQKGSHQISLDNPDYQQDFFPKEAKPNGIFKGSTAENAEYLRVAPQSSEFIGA
Chain of EGFR(D770_N771insSVD) expressing Ba/F3 stable cell line (P00533 with tags, fused parts or gaps DUP768-770): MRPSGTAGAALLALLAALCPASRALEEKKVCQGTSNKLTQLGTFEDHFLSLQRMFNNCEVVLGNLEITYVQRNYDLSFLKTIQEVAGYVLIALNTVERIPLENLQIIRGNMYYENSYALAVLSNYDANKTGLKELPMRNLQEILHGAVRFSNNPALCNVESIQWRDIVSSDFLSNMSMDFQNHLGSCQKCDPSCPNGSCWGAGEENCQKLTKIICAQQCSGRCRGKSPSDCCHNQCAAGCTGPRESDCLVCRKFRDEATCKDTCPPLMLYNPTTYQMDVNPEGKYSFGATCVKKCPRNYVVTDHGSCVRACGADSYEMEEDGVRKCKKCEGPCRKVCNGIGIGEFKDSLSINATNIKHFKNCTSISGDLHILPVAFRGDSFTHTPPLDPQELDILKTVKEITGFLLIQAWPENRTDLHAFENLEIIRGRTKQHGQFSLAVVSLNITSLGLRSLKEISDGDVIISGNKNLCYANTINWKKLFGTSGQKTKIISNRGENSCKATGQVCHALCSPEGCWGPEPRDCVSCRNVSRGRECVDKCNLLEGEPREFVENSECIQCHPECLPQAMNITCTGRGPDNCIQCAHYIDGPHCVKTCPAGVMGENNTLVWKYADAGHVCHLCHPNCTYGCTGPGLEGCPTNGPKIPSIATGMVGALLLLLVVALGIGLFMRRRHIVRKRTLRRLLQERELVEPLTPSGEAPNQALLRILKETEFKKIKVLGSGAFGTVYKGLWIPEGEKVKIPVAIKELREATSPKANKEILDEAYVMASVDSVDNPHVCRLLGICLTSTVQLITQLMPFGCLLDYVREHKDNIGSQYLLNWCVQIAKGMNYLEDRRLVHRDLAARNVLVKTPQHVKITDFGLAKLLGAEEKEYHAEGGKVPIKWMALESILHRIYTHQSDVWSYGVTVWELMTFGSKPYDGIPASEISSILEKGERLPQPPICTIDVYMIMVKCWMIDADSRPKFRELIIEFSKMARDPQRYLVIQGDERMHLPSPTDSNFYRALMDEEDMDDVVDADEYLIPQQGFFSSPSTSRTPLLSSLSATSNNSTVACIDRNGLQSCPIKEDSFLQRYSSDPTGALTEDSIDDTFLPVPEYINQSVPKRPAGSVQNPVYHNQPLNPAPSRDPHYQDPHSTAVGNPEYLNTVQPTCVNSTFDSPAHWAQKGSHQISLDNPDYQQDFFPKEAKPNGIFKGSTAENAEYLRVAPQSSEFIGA

For `C=CC(=O)Nc1ccc(F)c(Nc2nc(Nc3cnn(C)c3)ncc2-c2cc(F)cc(N3CCCC3)c2)c1` [Compound 121, N-(4-fluoro-3-((5-(3-fluoro-5-(pyrrolidin-1-yl)phenyl)-2-((1-methyl-1H-pyrazol-4-yl)amino)pyrimidin-4-yl)amino)phenyl)acrylamide], the IC50 in experiment [1] was greater than 10000 nM. In addition, the GI50 in experiment [2] was greater than 10000 nM.

For `C=CC(=O)Nc1ccc(F)c(Nc2nc(Nc3cnn(C)c3)ncc2-c2ccc(Br)c(N(C)C)c2)c1` [Compound 119, N-(3-((5-(4-bromo-3-(dimethylamino)phenyl)-2-((1-methyl-1H-pyrazol-4-yl)amino)pyrimidin-4-yl)amino)-4-fluorophenyl)acrylamide], in experiment [1], the concentration for half-maximal inhibition (IC50) was 1160 nM. Further, the GI50 in experiment [2] was found to be 5200 nM.

Consider `Cn1cc(Nc2ncc(-c3ccc(Br)c(F)c3)c(Nc3cc(NC(=O)/C=C/CN4CCCCC4)ccc3F)n2)cn1` [Compound 142, (E)-N-(3-((5-(4-bromo-3-fluorophenyl)-2-((1-methyl-1H-pyrazol-4-yl)amino)pyrimidin-4-yl)amino)-4-fluorophenyl)-4-(piperidin-1-yl)but-2-enamide], for which, in experiment [1], the IC50 is 301 nM. For the same compound, the GI50 in experiment [2] amounted to 738 nM.

Regarding `C=CC(=O)Nc1ccc(F)c(Nc2nc(Nc3cnn(C)c3)ncc2-c2ccc3c(c2)OCCO3)c1` [Compound 111, N-(3-((5-(2,3-dihydrobenzo[b][1,4]dioxin-6-yl)-2-((1-methyl-1H-pyrazol-4-yl)amino)pyrimidin-4-yl)amino)-4-fluorophenyl)acrylamide], in experiment [1], the IC50 came out at 164 nM. Also, the GI50 in experiment [2] was 1080 nM.

For `[2H]c1ccc(NC(=O)C=C)cc1Nc1nc(Nc2cnn(C)c2)ncc1-c1cc(F)cc(OC)c1` [Compound 145, N-(3-((5-(3-fluoro-5-methoxyphenyl)-2-((1-methyl-1H-pyrazol-4-yl)amino)pyrimidin-4-yl)amino)phenyl-4-d)acrylamide], in experiment [1], the IC50 was 388 nM. For the same compound, in experiment [2], the GI50 is 264 nM.

For `C=CC(=O)Nc1ccc(F)c(Nc2nc(Nc3cnn(C)c3)ncc2-c2cc(F)cc(OC(C)C)c2)c1` [Compound 129, N-(4-fluoro-3-((5-(3-fluoro-5-isopropoxyphenyl)-2-((1-methyl-1H-pyrazol-4-yl)amino)pyrimidin-4-yl)amino)phenyl)acrylamide], the 50% inhibitory concentration (IC50) in experiment [1] was greater than 10000 nM. In addition, in experiment [2], the GI50 was greater than 10000 nM.

For `C=CC(=O)Nc1ccc(F)c(Nc2nc(Nc3cnn(C)c3)ncc2-c2ccc(F)cc2C(F)(F)F)c1` [Compound 107, N-(4-fluoro-3-((5-(4-fluoro-2-(trifluoromethyl)phenyl)-2-((1-methyl-1H-pyrazol-4-yl)amino)pyrimidin-4-yl)amino)phenyl)acrylamide], the IC50 in experiment [1] worked out at 3130 nM. Also, the GI50 in experiment [2] is 7340 nM.

`C=CC(=O)Nc1ccc(F)c(Nc2nc(Nc3cnn(C)c3)ncc2-c2cc(OC)cc(OC)c2)c1` [Compound 116, N-(3-((5-(3,5-dimethoxyphenyl)-2-((1-methyl-1H-pyrazol-4-yl)amino)pyrimidin-4-yl)amino)-4-fluorophenyl)acrylamide]: in experiment [1], the IC50 was found to be 3520 nM. In addition, the GI50 in experiment [2] is greater than 10000 nM.

With `C=CC(=O)Nc1cccc(Nc2nc(Nc3cnn(C)c3)ncc2-c2cc(F)c(F)c(F)c2)c1` [Compound 148, N-(3-((2-((1-methyl-1H-pyrazol-4-yl)amino)-5-(3,4,5-trifluorophenyl)pyrimidin-4-yl)amino)phenyl)acrylamide], in experiment [1], the IC50 stood at 29 nM. The figures for the GI50 in experiment [3] and in experiment [2] were 10 nM and 45 nM, respectively.

Regarding `C=CC(=O)Nc1ccc(F)c(Nc2nc(Nc3cnn(C)c3)ncc2-c2ccc(Br)c(OC)c2)c1` [Compound 134, N-(3-((5-(4-bromo-3-methoxyphenyl)-2-((1-methyl-1H-pyrazol-4-yl)amino)pyrimidin-4-yl)amino)-4-fluorophenyl)acrylamide], in experiment [1], the concentration for half-maximal inhibition (IC50) came out at 238 nM. Besides, the GI50 in experiment [2] worked out at 453 nM.

On to `C=CC(=O)Nc1ccc(F)c(Nc2nc(Nc3cnn(C)c3)ncc2-c2cnc(C(F)(F)F)c(F)c2)c1` [Compound 61, N-(4-fluoro-3-((5-(5-fluoro-6-(trifluoromethyl)pyridin-3-yl)-2-((l-methyl-1H-pyrazol-4-yl)amino)pyrimidin-4-yl)amino)phenyl)acrylamide], for which the GI50 in experiment [4] came to 11 nM; in experiment [2], 37 nM.

Take `C=CC(=O)Nc1ccc(F)c(Nc2nc(Nc3cnn(C)c3)ncc2-c2cc(F)c(C(F)(F)F)c(F)c2)c1` [Compound 20, N-(3-((5-(3,5-difluoro-4-(trifluoromethyl)phenyl)-2-((1-methyl-1H-pyrazol-4-yl)amino)pyrimidin-4-yl)amino)-4-fluorophenyl)acrylamide trifluoroacetate]: the IC50 in experiment [1] was found to be 13 nM. The GI50 in experiment [4] was 61 nM; in experiment [2], 164 nM.

Consider `C=CC(=O)Nc1ccc(F)c(Nc2nc(Nc3cnn(C)c3)ncc2-c2ccc(Br)c(C(F)F)c2)c1` [Compound 118, N-(3-((5-(4-bromo-3-(difluoromethyl)phenyl)-2-((1-methyl-1H-pyrazol-4-yl)amino)pyrimidin-4-yl)amino)-4-fluorophenyl)acrylamide], for which the IC50 in experiment [1] was found to be 215 nM. Moreover, the GI50 in experiment [2] was determined as 352 nM.

For the compound `C=CC(=O)Nc1ccc(F)c(Nc2nc(Nc3cnn(C)c3)ncc2-c2cc(F)c(N(C)C)c(F)c2)c1` [Compound 156, N-(3-((5-(4-(dimethylamino)-3,5-difluorophenyl)-2-((1-methyl-1H-pyrazol-4-yl)amino)pyrimidin-4-yl)amino)-4-fluorophenyl)acrylamide], in experiment [1], the half-inhibitory concentration (IC50) was 19 nM. In addition, the GI50 in experiment [2] amounted to 309 nM.

Turning to `C=CC(=O)Nc1ccc(F)c(Nc2nc(Nc3cnn(C)c3)ncc2-c2ccc3c(c2)OC(C)(C)O3)c1` [Compound 114, N-(3-((5-(2,2-dimethylbenzo[d][1,3]dioxol-5-yl)-2-((1-methyl-1H-pyrazol-4-yl)amino)pyrimidin-4-yl)amino)-4-fluorophenyl)acrylamide], the half-maximal inhibitory concentration (IC50) in experiment [1] is 77 nM. In experiment [2], the GI50 turned out to be 4570 nM.

Consider `O=C(O)C(F)(F)F.[2H]C([2H])([2H])n1cc(Nc2ncc(-c3cnc(F)c(F)c3)c(Nc3cc(NC(=O)C=C)ccc3F)n2)cn1` [Compound 101, N-(3-((5-(5,6-difluoropyridin-3-yl)-2-((1-(methyl-d3)-1H-pyrazol-4-yl)amino)pyrimidin-4-yl)amino)-4-fluorophenyl)acrylamide], for which the GI50 in experiment [3] stood at 15 nM.

For `C=CC(=O)Nc1ccc(F)c(Nc2nc(Nc3cnn(C)c3)ncc2-c2ccc(OCc3cccc(F)c3)c(Cl)c2)c1` [Compound 122, N-{3-[(5-{3-chloro-4-[(3-fluorophenyl)methoxy]phenyl}-2-[(1-methyl-1H-pyrazol-4-yl)amino]pyrimidin-4-yl)amino]-4-fluorophenyl}prop-2-enamide], the IC50 in experiment [1] was 290 nM. In experiment [2], the GI50 amounted to 669 nM.

In the case of `COc1cc(F)cc(-c2cnc(Nc3cnn(C)c3)nc2Nc2cc(NC(=O)/C=C/CN(C)C)ccc2F)c1` [Compound 144, (E)-4-(dimethylamino)-N-(4-fluoro-3-((5-(3-fluoro-5-methoxyphenyl)-2-((1-methyl-1H-pyrazol-4-yl)amino)pyrimidin-4-yl)amino)phenyl)but-2-enamide], in experiment [1], the IC50 was determined as 4880 nM. Besides, the GI50 in experiment [2] amounted to 970 nM.

With `C=CC(=O)Nc1ccc(F)c(Nc2nc(Nc3cnn(C)c3)ncc2-c2cc(F)cc(OCC3CC3)c2)c1` [Compound 130, N-(3-((5-(3-(cyclopropylmethoxy)-5-fluorophenyl)-2-((1-methyl-1H-pyrazol-4-yl)amino)pyrimidin-4-yl)amino)-4-fluorophenyl)acrylamide], the 50% inhibitory concentration (IC50) in experiment [1] is greater than 10000 nM. In experiment [2], the GI50 is greater than 10000 nM.

Consider `C=CC(=O)Nc1ccc(F)c(Nc2nc(Nc3cnn(C)c3)ncc2-c2cc(F)cc(N3CCC3)c2)c1` [Compound 120, N-(3-((5-(3-(azetidin-1-yl)-5-fluorophenyl)-2-((1-methyl-1H-pyrazol-4-yl)amino)pyrimidin-4-yl)amino)-4-fluorophenyl)acrylamide], for which the IC50 in experiment [1] is 9280 nM. For the same compound, in experiment [2], the GI50 is greater than 10000 nM.

Turning to `C=CC(=O)Nc1ccc(F)c(Nc2nc(Nc3cnn(C)c3)ncc2-c2ccc(Br)cc2F)c1` [Compound 112, N-(3-((5-(4-bromo-2-fluorophenyl)-2-((1-methyl-1H-pyrazol-4-yl)amino)pyrimidin-4-yl)amino)-4-fluorophenyl)acrylamide], the 50% inhibitory concentration (IC50) in experiment [1] worked out at 497 nM. Further, the GI50 in experiment [2] stood at 923 nM.

Regarding `C=CC(=O)Nc1ccc(F)c(Nc2nc(Nc3cn(C)nc3Cl)ncc2-c2ccc(OC)c(OC)c2)c1` [Compound 110, N-(3-((2-((3-chloro-1-methyl-1H-pyrazol-4-yl)amino)-5-(3,4-dimethoxyphenyl)pyrimidin-4-yl)amino)-4-fluorophenyl)acrylamide], in experiment [1], the half-inhibitory concentration (IC50) was 819 nM. In experiment [2], the GI50 was found to be 5780 nM.
